Counter-ions that a name gives are not always drawn. Like-named read-outs stand apart in the source and are kept apart here.
Experiments:
[1] = target: His-GST-TVMV-hRIPK1(1-324) (Homo sapiens (Human), UniProt Q13546); assay: RIPK1 HTRF Binding Assay; conditions: HTRF binding, 1 h at rt; read-out: RIPK1 (IC50)
Description: A solution was prepared containing 0.2 nM Anti GST-Tb (Cisbio, 61GSTTLB), 90.6 nM probe and 1 nM His-GST-TVMV-hRIPK1(1-324) in FRET Buffer (20 mM HEPES, 10 mM MgCl2, 0.015% Brij-35, 4 mM DTT, 0.05 mg/mL BSA). Using Formulatrix Tempest, the detection antibody/enzyme/probe solution ([…]) was dispensed into wells of a 1536 plate (Black Low Binding Polystyrene 1536 Plate (Corning, 3724)) containing 10 nL of compounds of interest at appropriate concentration in DMSO. The plate was incubated at rt for 1 h. FRET was measured using the EnVision plate reader (Excitation: 340 nm, Emission: 520 nm/[…]). Total signal (0% inhibition) was calculated from wells containing 10 nL DMSO only.
The coding region of human RIPK1(1-324) flanked by NdeI site at 5′ end and stop codon TGA and XhoI site at 3′ end was codon optimized and gene synthesized at GenScript USA Inc. (Piscataway, N.J.) and subcloned into a modified pFastBacl vector (Invitrogen, Carlsbad, Calif.) with N-terminal His-GST-TVMV tag, to generate His-GST-TVMV-hRIPK1(1-324)-pFB. The fidelity of the synthetic fragment was confirmed by sequencing.

[2] = tested on: MLKL phosphorylation in HT29-L23 human colorectal adenocarcinoma cells; assay: MLKL Phosphorylation High-Content Assay; format: cell-based; conditions: 6 h, necroptosis induced with TNFα, SMAC mimetic and Z-VAD, read-out: pMLKL (IC50)
Procedure, shortened: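 HT29-L23 cells pretreated 30 min at 37 °C with compound (6.25 to 0.106 μM final), then necroptosis induced with TNFα 35 ng/mL, SMAC mimetic 700 nM and Z-VAD 140 nM for 6 h. Fixed cells immunostained for MLKL pS358 and imaged; IC50 and Ymax from 4-parameter logistic fit.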

His-GST-TVMV-hRIPK1(1-324), sequence (Q13546 1-324): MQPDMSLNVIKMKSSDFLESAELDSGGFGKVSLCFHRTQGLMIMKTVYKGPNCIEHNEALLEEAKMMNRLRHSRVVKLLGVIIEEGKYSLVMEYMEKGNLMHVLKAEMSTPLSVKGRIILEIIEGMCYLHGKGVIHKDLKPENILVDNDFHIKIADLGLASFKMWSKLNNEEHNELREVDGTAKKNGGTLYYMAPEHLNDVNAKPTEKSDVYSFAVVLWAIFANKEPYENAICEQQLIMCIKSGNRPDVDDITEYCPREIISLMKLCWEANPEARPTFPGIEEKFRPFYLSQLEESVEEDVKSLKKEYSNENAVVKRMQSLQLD

Molecule: CC(=O)Nc1cn2nc(-c3cnc(C)c(C(=O)NCc4ccc(F)c(F)c4OCC4CC4)c3)ccc2n1 [Example 209, N-{[2-(cyclopropylmethoxy)-3,4-difluorophenyl]methyl}-5-{2-acetamidoimidazo [1,2-b]pyridazin-6-yl}-2-methylpyridine-3-carboxamide]
- IC50 [1]: 133 nM
- IC50 ([2]; Homo sapiens): 202 nM

Molecule: Cc1ncc(-c2ccc3nc(NC(=O)CO)cn3n2)cc1C(=O)N[C@@H](C)c1cc(OC(F)(F)F)ccc1F [Example 181, N-[(1S)-1-[2-fluoro-5-(trifluoromethoxy)phenyl]ethyl]-5-[2-(2-hydroxyacetamido)imidazo[1,2-b]pyridazin-6-yl]-2-methylpyridine-3-carboxamide]
- IC50 [1]: 103 nM
- IC50 ([2]; Homo sapiens): 171 nM

Molecule: COc1nc(C)c(-c2ccc3nc(NC(C)=O)cn3n2)cc1C(=O)NCc1ccccc1OC1CCOC1 (stereo not drawn) [Example 306, 5-{2-acetamidoimidazo[1,2-b]pyridazin-6-yl}-2-methoxy-6-methyl-N-{[2-(oxolan-3-yloxy)phenyl]methyl}pyridine-3-carboxamide]
- IC50 [1]: 5 nM
- IC50 ([2]; Homo sapiens): 6 nM

Molecule: COc1ncc(-c2ccc3nc(NC(C)=O)cn3n2)cc1C(=O)NC(C)c1cccc(OC(F)(F)F)c1 (stereo not drawn) [Example 125, 5-{2-acetamidoimidazo[1,2-b]pyridazin-6-yl}-2-methoxy-N-{1-[3-(trifluoro-methoxy)phenyl]ethyl}pyridine-3-carboxamide]
- IC50 [1]: 34 nM
- IC50 [2]: 153 nM

Molecule: [2H]C([2H])(NC(=O)c1cc(-c2ccc3nc(NC(C)=O)cn3n2)cnc1C)c1cc(OC(F)(F)F)ccc1F [Example 208, 5-{2-acetamidoimidazo[1,2-b]pyridazin-6-yl}-N-{[2-fluoro-5-(trifluoromethoxy)phenyl] (deutero)methyl}-2-methylpyridine-3-carboxamide]
- IC50 [1]: 5 nM
- IC50 ([2]; Homo sapiens): 5 nM

Molecule: [2H]C([2H])(Oc1c(F)cc(F)cc1CNC(=O)c1cc(-c2ccc3nc(NC(=O)CC)cn3n2)cnc1OC)C1CC1 [Example 243, N-({2-[cyclopropyl(deutero)methoxy]-3,5-difluorophenyl}methyl)-2-methoxy-5-{2-propanamidoimidazo[1,2-b]pyridazin-6-yl}pyridine-3-carboxamide]
- IC50 [1]: 2 nM
- IC50 ([2]; Homo sapiens): 3 nM

Molecule: CC(=O)Nc1cn2nc(-c3ccc(C)c(C(=O)NCC[C@H](O)c4ccc(Cl)cc4)c3)ccc2n1 [Example 398, N-[(3S)-3-(4-chlorophenyl)-3-hydroxypropyl]-5-{2-acetamidoimidazo [1,2-b]pyridazin-6-yl}-2-methylbenzamide]
- IC50 [1]: 5 nM
- IC50 ([2]; Homo sapiens): 2 nM

Molecule: [2H]C([2H])([2H])Oc1nc(C)c(-c2ccc3nc(NC(C)=O)cn3n2)cc1C(=O)NCc1cc(F)cc(F)c1OCC1CC1 [Example 177, N-{[2-(cyclopropylmethoxy)-3,5-difluorophenyl]methyl}-5-{2-acetamidoimidazo[1,2-b]pyridazin-6-yl}-2-(deutero)methoxy-6-methylpyridine-3-carboxamide]
- IC50 [1]: 2 nM
- IC50 ([2]; Homo sapiens): 3 nM

Molecule: CC(=O)Nc1cn2nc(-c3cnc(C(F)(F)F)c(C(=O)NCc4c(F)ccc(F)c4OCC4CC4)c3)ccc2n1 [Example 31, N-{[2-(cyclopropylmethoxy)-3,6-difluorophenyl]methyl}-5-{2-acetamidoimidazo[1,2-b]pyridazin-6-yl}-2-(trifluoromethyl)pyridine-3-carboxamide]
- IC50 [1]: 82 nM
- IC50 ([2]; Homo sapiens): 339 nM

Molecule: CCC(=O)Nc1cn2nc(-c3cnc(OC)c(C(=O)NCc4cc(OC(F)(F)F)ccc4F)c3)ccc2n1 [Example 10, N-{[2-fluoro-5-(trifluoromethoxy)phenyl]methyl}-2-methoxy-5-{2-propanamidoimidazo[1,2-b]pyridazin-6-yl}pyridine-3-carboxamide]
- IC50 [1]: 11 nM
- IC50 ([2]; Homo sapiens): 33 nM

Molecule: COc1ncc(-c2ccc3nc(NC(C)=O)cn3n2)cc1C(=O)NCc1ccc(F)c(OCC2CC2)c1 [Example 142, N-{[3-(cyclopropylmethoxy)-4-fluorophenyl]methyl}-5-{2-acetamidoimidazo[1,2-b]pyridazin-6-yl}-2-methoxypyridine-3-carboxamide]
- IC50 [1]: 29 nM
- IC50 ([2]; Homo sapiens): 181 nM

Molecule: CC(=O)Nc1cn2nc(-c3ccc(C)c(C(=O)NCc4cc(F)ccc4-c4cnn(C)c4)c3)ccc2n1 [Example 403, 5-{2-acetamidoimidazo [1,2-b]pyridazin-6-yl}-N-{[5-fluoro-2-(1-methyl-1H-pyrazol-4-yl)phenyl]methyl}-2-methylbenzamide]
- IC50 [1]: 67 nM
- IC50 ([2]; Homo sapiens): 262 nM

Molecule: COc1nc(C)c(-c2ccc3nc(NC(C)=O)cn3n2)cc1C(=O)NC(C)c1cccc(OC(F)(F)F)c1 (stereo not drawn) [Example 289, 5-{2-acetamidoimidazo[1,2-b]pyridazin-6-yl}-2-methoxy-6-methyl-N-{1-[3-(trifluoromethoxy)phenyl]ethyl}pyridine-3-carboxamide]
- IC50 [1]: 16 nM
- IC50 [2]: 16 nM

Molecule: CC(=O)Nc1cn2nc(-c3cnc(C)c(C(=O)NCc4cccc(OC(F)(F)F)c4)c3)ccc2n1 [Example 221, 5-{2-acetamidoimidazo[1,2-b]pyridazin-6-yl}-2-methyl-N-{[3-(trifluoromethoxy)phenyl]methyl}pyridine-3-carboxamide, TFA]
- IC50 [1]: 49 nM
- IC50 ([2]; Homo sapiens): 52 nM

Molecule: Cc1nc(C)c(-c2ccc3nc(NC(=O)CO)cn3n2)cc1C(=O)NCc1cc(OC(F)(F)F)ccc1F [Example 38, N-(2-fluoro-5-(trifluoromethoxy)benzyl)-5-(2-(2-hydroxyacetamido)imidazo[1,2-b]pyridazin-6-yl)-2,6-dimethylnicotinamide]
- IC50 [1]: 13 nM
- IC50 ([2]; Homo sapiens): 34 nM

Molecule: Cc1c(F)cc(-c2ccc3nc(NC(=O)CN(C)C)cn3n2)cc1C(=O)NCC[C@H](O)c1ccc(Cl)cc1 [Example 362, N-[(3S)-3-(4-chlorophenyl)-3-hydroxypropyl]-5-{2-[2-(dimethylamino)acetamido]imidazo[1,2-b]pyridazin-6-yl}-3-fluoro-2-methylbenzamide]
- IC50 [1]: 6 nM
- IC50 ([2]; Homo sapiens): 5 nM

Molecule: CC(=O)Nc1cn2nc(-c3cc(C(=O)NCc4cc(F)cc(F)c4O[C@H]4CCOC4)c(C)nc3C)ccc2n1 [Example 60, N-({3,5-difluoro-2-[(3S)-oxolan-3-yloxy]phenyl}methyl)-5-{2-acetamidoimidazo[1,2-b]pyridazin-6-yl}-2,6-dimethylpyridine-3-carboxamide]
- IC50 [1]: 6 nM
- IC50 ([2]; Homo sapiens): 26 nM

Molecule: CC(=O)Nc1cn2nc(-c3cncc(C(=O)NCc4c(F)cccc4OC4CCCC4)c3)ccc2n1 [Example 240, N-{[2-(cyclopentyloxy)-6-fluorophenyl]methyl}-5-{2-acetamidoimidazo[1,2-b]pyridazin-6-yl}pyridine-3-carboxamide]
- IC50 [1]: 5 nM
- IC50 ([2]; Homo sapiens): 8 nM

Molecule: COc1ncc(-c2ccc3nc(NC(C)=O)cn3n2)cc1C(=O)NCc1ccccc1N1CCOCC1 [Example 162, 5-{2-acetamidoimidazo[1,2-b]pyridazin-6-yl}-2-methoxy-N-{[2-(morpholin-4-yl)phenyl]methyl}pyridine-3-carboxamide]
- IC50 [1]: 64 nM
- IC50 ([2]; Homo sapiens): 140 nM

Molecule: CC(=O)Nc1cn2nc(-c3cnc(C)c(C(=O)NCc4c(F)cccc4OCC(F)(F)F)c3)ccc2n1 [Example 190, 5-{2-acetamidoimidazo[1,2-b]pyridazin-6-yl}-N-{[2-fluoro-6-(2,2,2-trifluoroethoxy)phenyl]methyl}-2-methylpyridine-3-carboxamide]
- IC50 [1]: 23 nM
- IC50 ([2]; Homo sapiens): 35 nM

Molecule: [2H]C([2H])([2H])Oc1nc(C)c(-c2ccc3nc(NC(C)=O)cn3n2)cc1C(=O)NCc1cc(F)cc(F)c1O[C@@H]1CCOC1 [Example 169, N-({3,5-difluoro-2-[(3R)-oxolan-3-yloxy]phenyl}methyl)-5-{2-acetamidoimidazo[1,2-b]pyridazin-6-yl}-2-(deutero)methoxy-6-methylpyridine-3-carboxamide]
- IC50 [1]: 3 nM
- IC50 ([2]; Homo sapiens): 10 nM

Molecule: 5-{2-acetamidoimidazo[1,2-b]pyridazin- 6-yl}-2-methoxy-6-methyl-N-{[2- (trifluoromethoxy)phenyl](deutero)- methyl}pyridine-3-carboxamide [Example 295]
- IC50 [1]: 10 nM
- IC50 [2]: 23 nM

Molecule: Cc1ncc(-c2ccc3nc(NC(=O)C(C)(C)C#N)cn3n2)cc1C(=O)N[C@H](C)c1cc(OC(F)(F)F)ccc1F [Example 27, 5-[2-(2-cyano-2,2-dimethylacetamido)imidazo[1,2-b]pyridazin-6-yl]-N-[(1R)-1-[2-fluoro-5-(trifluoromethoxy)phenyl]ethyl]-2-methylpyridine-3-carboxamide]
- IC50 [1]: 109 nM
- IC50 ([2]; Homo sapiens): 108 nM

Molecule: [2H]C([2H])(NC(=O)c1cc(-c2ccc3nc(NC(=O)CO)cn3n2)c(C)nc1C)c1cc(C(F)(F)F)ccc1F [Example 93, N-{[2-fluoro-5-(trifluoro-methyl)phenyl](deutero)methyl}-5-[2-(2-hydroxy-acetamido)imidazo[1,2-b]pyridazin-6-yl]-2,6-dimethylpyridine-3-carboxamide]
- IC50 [1]: 50 nM
- IC50 ([2]; Homo sapiens): 129 nM

Source: patent US11440913B2, “Aminoimidazopyridazines as kinase inhibitors” (BRISTOL-MYERS SQUIBB COMPANY, priority 2017, dated 2022)
